In series [1] the test system is chick aortic ring. Description: Chick aortic ring endothelial sprouting assay. In kind it is cell-based. The note with it: Matrigel. As to the method:
Aortic arches were dissected from day-14 chick embryos, cut into cross-sectional fragments, and implanted in vitro in Matrigel using a modification of methods previously described (V. Muthukkaruppan, personal communication). When cultured in MCDB-131 medium supplemented with 5% fetal bovine serum, endothelial cells sprouted and vascular channel formation occurred within 24-48 hours.

The subject of series [2] is liver regeneration. Description: Hepatectomy (liver regeneration) model. In kind it is in vivo, C57BL/6J mice. The note with it: for average liver size on post-operative day 8: 30 mg/kg q.o.d. s.c., controls regenerate to ~1.2 g. How it is done:
Male C57BL/6J mice underwent a partial hepatectomy through a midline incision after general anesthesia with isoflourane^33. Free or conjugated TNP-470 (30 mg/kg) were given s.c. every other day for 8 days beginning on the day of surgery according to the scheme described in FIG. 4a. Alternatively, the doses given were 60 mg/kg the day of surgery and 4 days later or 120 mg/kg once on the day of the partial hepatectomy. The liver was harvested on the 8th day, weighed and analyzed by histology.
This non-neoplastic model is a relatively fast (8 days) in vivo angiogenesis-dependent process^33.

For series [3], the system named is A2058 human melanoma. Nature of the series: Antitumor activity, SCID mice bearing s.c. A2058 human melanoma. In kind it is in vivo. The note with it: for T/C (mean tumor volume treated / untreated control) / survival: 30 mg/kg TNP-470 equivalent. From the text:
Each group consisted of 5 mice. […] 500 mm^3.

Series [4] has as its system LLC. Nature of the series: Antitumor activity, C57BL/6J mice bearing s.c. LLC. To be noted: for survival: 30 mg/kg q.o.d. TNP-470 equivalent; for tumor growth inhibition: day 8, 30 mg/kg q.o.d., treatment started at 100 mm^3; for T/C: day 8, treatment started at 500 mm^3. From the text: Male C57BL/6J mice (˜8 weeks, ˜20 g) were inoculated with 5×10^6 viable LLC or A2058 melanoma cells s.c. The tumors were allowed to grow to a volume of approximately 100 mm^3. […] Each group consisted of 5 mice. Mice were euthanized when tumors reached or surpassed a size equivalent to 30% of their body weight. Animals were weighed daily and observed for signs of tumor progression and euthanized if their body weight decreased below 80% of their starting weight. Animals were monitored for general health, weight loss, and tumor progression. At termination, mice underwent post-mortem examination and tumors were dissected and weighed. […] The same dosing schedule was repeated with white SCID male mice (˜8 weeks, 20 g) inoculated with 5×10^6 viable A2058 human melanoma cells s.c. and treated as described above.

For series [5], the system named is A2058 melanoma cells. Nature of the series: Serum-induced A2058 cell proliferation. How it is done: The dotted line represents the proliferation of bFGF-induced BCE or serum-induced A2058 cells (—) and the […] represents the BCE and A2058 cell proliferation in the absence of bFGF or serum, respectively ( - - - ).
BCE cells were obtained and grown as previously described^48. For the proliferation assay, cells were washed with PBS and dispersed in a 0.05% trypsin solution. […] The media was replaced with 0.25 ml of DMEM, 5% BCS and 1% GPS and the test sample applied. […] After 30 min of incubation, media and bFGF were added to obtain a final volume of 0.5 ml of DMEM, 5% BCS, 1% GPS and 1 ng/ml bFGF. Control cells were grown with or without bFGF. After 72 hr, cells were dispersed in trypsin, resuspended in Hematall (Fisher Scientific, Pittsburgh, Pa.), and counted in a Coulter counter.

Series [6] is described as follows: in vivo. The note with it: male, C57BL/6J, mouse, 30 mg/kg.
Series [7] relates to LLC. The note with it: at doses of 60 and 90 mg/kg/q.o.d., stated as known; cited from earlier work.
The test system of series [8] is murine, human and metastatic tumors. The note with it: cited from earlier work.
The nature of series [9]: Water solubility.
A short description of series [10]: Early mouse development. The note with it: injected into 7 and 17 day-old mice.
Series [11] can be described thus: Rotorod test and body weight, 5 weeks treatment. A general note: The rotarod test checks motor coordination on a turning rod.
The conditions of series [12]: clinical pharmacokinetics, in words; cited from earlier work.
In series [13] the target is cathepsin B (Homo sapiens, UniProt P07858). The note with it: incubation with cathepsin B, pH 5.5, 37° C.
From the text: These conditions imitate the lysosomal environment in endothelial cells where lysosomal enzymes, such as cathepsin B, are present.
[14] abbreviates: in mice, mostly 30 mg/kg subcutaneously every other day.
The mark [15] stands for this setting: 30 mg/kg q.o.d. s.c. for 5 weeks.

Values joined by “and” are separate entries in the source; they are usually repeats but may differ in a detail not shown here. Equal entries are not always repeated. “Also recorded” adds a separate entry of the source.

For `CO[C@@H]1[C@H](OC(=O)NC(=O)CCl)CC[C@]2(CO2)[C@H]1[C@@]1(C)O[C@@H]1CC=C(C)C` [TNP-470, O-(chloracetyl-carbamoyl) fumagillol], in series [1], the “concentration that completely prevented outgrowth” value was determined as 100 pg/mL; the “concentration that reduced the number and length of vascular sprouts” value was found to be 50 pg/mL. Moreover, the “average liver size on post-operative day 8” value in series [2] is recorded as 0.7 g. Besides, the “inhibition of liver regeneration” value in [2] (30 mg/kg/q.o.d s.c.) is recorded as “inhibited liver regeneration”. Besides, the “inhibition of liver regeneration” value in [2] (60 mg/kg every four days) is listed as “did not inhibit liver regeneration”. Also, the “inhibition of liver regeneration” value in [2] (single injection of 120 mg/kg on the day of hepatectomy, 120 mg/kg) is given as “did not inhibit liver regeneration”. For the same compound, in [3], the “T/C (mean tumor volume treated / untreated control)” value amounted to 0.34 and the survival entry is “increased survival”. Further, in series [4], the survival result is recorded as “increased survival” and the tumor growth inhibition is on record as 67%. Besides, in series [5] (72 h), the “concentration at which inhibition of serum-induced proliferation (cytostatic effect) begins” value is at least 10 ng/mL and the “doses with cytotoxic effect” value was “higher than 100 μg/ml”. Also, the “potency on endothelial cells relative to tumor cells” value in [5] (BCE versus A2058 / tumor cells) is 4 logs and 3 logs. In addition, the TNP-470 in serum entry (after the 2 h time point) was “no detectable”. Moreover, the “free TNP-470 concentrations in tumor specimens” value (any sample time point) is listed as “no detectable concentrations”. In series [6], this compound yielded a concentration at 1 h of 0.9 ng/mL and a concentration at 2 h of 1.7 ng/mL. The “toxicity to the mice” value in [7] is given as “toxic”. Further, in series [8] (setting [14]), the “inhibition of growth of human tumors” value was “up to 100%” and the “inhibition of growth of metastatic tumors” value was “up to 100%”. Besides, the “inhibition of growth of murine tumors” value in series [8] (mostly 30 mg/kg subcutaneously every other day) was “up to 91%”. The “body weight of animals receiving the drug” value in series [8] (with few exceptions) is “weight loss or failure to gain weight”. Moreover, the water solubility entry in series [9] is reported as “not water-soluble”. Besides, the “effect on normal development (weight gain) of newborn mice” value in series [10] is listed as “causes delay in newborn mice development; also recorded: inhibited growth”. In series [11] (setting [15]), the body weight result is reported as “lost weight” and the “time remaining on the rotating rod” value was “significantly shorter times”. Also, the neurohistological alterations entry in [11] (data not shown) is on record as “no visible neurohistological alterations”.
Turning to `COc1cccc2c1C(=O)c1c(O)c3c(c(O)c1C2=O)C[C@@](O)(C(=O)CO)C[C@@H]3O[C@H]1C[C@H](N)[C@H](O)[C@H](C)O1` [doxorubicin], the t1/2a entry in series [12] is “a few minutes”.
Take “HPMA copolymer-Gly-Phe-Leu-Gly (SEQ ID NO: 1)-ethylenediamine-TNP-470 [HPMA copolymer-TNP-470]”: the “concentration that completely prevented outgrowth” value in series [1] was 100 pg/mL. The “concentration that reduced the number and length of vascular sprouts” value in series [1] was found to be 50 pg/mL. Further, the “average liver size on post-operative day 8” value in series [2] amounted to 0.7 g. The “inhibition of liver regeneration” value in series [2] (30 mg/kg/q.o.d s.c.) is “inhibited liver regeneration”; in series [2] (60 mg/kg every four days, listed as Conjugated TNP-470), “inhibited liver regeneration”; in series [2] (60 mg/kg every four days, listed as HPMA copolymer-TNP-470 conjugate), “equivalent effect as the 30 mg/kg q.o.d. dosing schedule”; in series [2] (single injection of 120 mg/kg on the day of hepatectomy, listed as Conjugated TNP-470, 120 mg/kg) it was “inhibited liver regeneration”; in [2] (single injection of 120 mg/kg on the day of hepatectomy, listed as HPMA copolymer-TNP-470 conjugate, 120 mg/kg), “equivalent effect as the 30 mg/kg q.o.d. dosing schedule”. Besides, the “T/C (mean tumor volume treated / untreated control)” value in series [3] is given as 0.12. For the same compound, the survival entry in [3] and in series [4] was “increased survival” each time. Also, the “T/C values for the conjugate” value in series [3] (summary statement in the conclusions, model not named) is 0.12-0.14. The results for the T/C in series [4] (30 mg/kg/q.o.d), in series [4] (60 mg/kg/q.o.d) and in series [4] (90 mg/kg/q.o.d) were 0.4, 0.4 and 0.24, respectively. In [4], this compound registered a tumor growth inhibition of 86%. The “time until TNP-470 release from the conjugate reached a plateau” value in series [13] is at most 5 h.
